Four compounds from ChEMBL document CHEMBL1158258, “Bioactive Isoquinoline Quinone from an Undescribed Philippine Marine Sponge of the Genus Xestospongia” (J Nat Prod, 1996) can be followed below.

≈ marks a conversion by molar mass, not a printed value. Calls of active or inactive are those of the source. The calls are words filed in the database; no cut-off is given here.

One test relates to Escherichia coli. Description: Antibacterial activity against Escherichia coli ATCC 25922 at 100 ug after 24 hrs by agar plate diffusion assay. The class given is functional, organism-based.
The subject of a further test is Staphylococcus aureus. The test can be described thus: Antibacterial activity against Staphylococcus aureus ATCC 25923 at 100 ug after 24 hrs by agar plate diffusion assay. The format is functional. The note with it: ATCC 25923, 24 h, read-out: IZ.
Test [1] relates to Spodoptera littoralis. Description: Insecticidal activity against Spodoptera littoralis neonate larvae assessed as survival at 270 ppm in artificial diet after 6 days relative to control. The format is functional.
For a further test, the system named is Bacillus subtilis. Description: Antibacterial activity against Bacillus subtilis 168 at 100 ug after 24 hrs by agar plate diffusion assay. Particulars: for zone of inhibition at 100 µg/disc: subsp. subtilis str. 168, 24 h, read-out: IZ. The format is functional.
The subject of test [2] is Spodoptera littoralis. The test can be described thus: Insecticidal activity against Spodoptera littoralis neonate larvae assessed as survival treated with artificial diet after 6 days. The format is functional, organism-based.

For orientation: LC50 means the concentration lethal to half of the exposed cells or organisms. Regarding `COC1=C(C)C(=O)c2ccnc(C)c2C1=O`, the outcome in the test on Escherichia coli was inactive. Also, the zone of inhibition at 100 µg/disc came to 9 mm in the test on Staphylococcus aureus and 12 mm with Bacillus subtilis. The Activity in the test on Spodoptera littoralis [1] was 93%. Besides, the EC50 with Spodoptera littoralis [2] is on record as 35 ppm. Also, the LC50 with Spodoptera littoralis [2] (Spodoptera littoralis, 144 h) turned out to be 521 µg/mL (≈ 2400 µM).

`C/C=C(/C)C(=O)OCc1nccc2c1C(=O)C(OC)=C(C)C2=O` [RENIERONE]: the outcome in the test with Escherichia coli was inactive. In addition, the zone of inhibition at 100 µg/disc with Staphylococcus aureus came out at 14 mm; in the test on Bacillus subtilis, 15 mm. In addition, in the test with Spodoptera littoralis [1], the Activity is reported as 60%.

For GENTAMICIN, in the test on Bacillus subtilis (subsp. subtilis str. 168), the inhibition zone (IZ) is 16 mm.

With `C/C=C(/C)C(=O)OCC1C2=C(C=CN1/C=C/C(C)=O)C(=O)C(C)=C(OC)C2=O` (stereo not given), the result in the test on Escherichia coli was inactive. Moreover, the zone of inhibition at 100 µg/disc in the test on Staphylococcus aureus and in the test on Bacillus subtilis was 15 mm throughout. The Activity with Spodoptera littoralis [1] worked out at 50%.
